Reference: publication PMC6656724 (Communications Biology, 2019)
Where “and” joins values, the source holds several entries; their conditions need not be identical. Identical values can stand only once.

Legend:
[1] = system: KMO activity in the striatum; assay: De novo 3-HK synthesis after intrastriatal [5-3H]-kynurenine; format: in vivo, Sprague–Dawley rats
Procedure: The prodrug (5 mg/kg) was administered intravenously to rats, immediately followed by an intrastriatal infusion of [^3H]-KYN. Tritiated KP metabolites were analysed after 1 h. A significant ~70% reduction (P < 0.01) in [^3H]-3-HK was observed (Fig. 3f) in parallel with minor increases in [^3H]-QUIN and […] (data not shown)—mirroring the results using a focal intracerebral injection of a KMO inhibitor[17].
The radioactive tracer method previously described by Guidetti et al. (1995)[31] was used to study acute KP metabolism in the brain in vivo. To this end, adult male Sprague–Dawley rats (weighing 270–300 g) were anesthetized with isoflurane using a vaporiser (induction dose 5%, maintenance dose 2%, v/v, in 100% oxygen) and placed in a stereotaxic frame. […] After thawing, tritiated KP metabolites were detected and analysed as described previously. The production of newly formed [^3H]-KYNA, [^3H]-3-HK and [^3H]-QUIN was expressed as a percentage of the total radioactivity recovered per striatum. […] The mobile phase was flown at 1.2 ml/min (Waters 515 HPLC Pump) through YMC-Pack Pro C18 (250 × 4.6 mm) column and detected with UV (Applied Biosystems 785A Absorbance Detector) at 254 nm then mixed with LabLogic FlowLogic U scintillation fluid flowing at 2.7 mL/min and radiation was detected (Berthold Technologies FlowStar LB514).

[2] = system: HTT93Q flies (Drosophila melanogaster model of HD); assay: Pseudopupil assay in Drosophila model of Huntington's disease; format: in vivo
Description: To test the therapeutic efficacy of 1, we next employed a widely-used Drosophila melanogaster model of the inherited neurodegenerative disorder Huntington’s disease (HD)[30], which features pan-neuronal expression of a mutant huntingtin exon 1 fragment (HTT93Q). We have previously shown that several KMO inhibitors, including UPF 648 and Ro 61-8048, are neuroprotective in this Drosophila model. We thus tested the ability of 1 to ameliorate loss of photoreceptor neurons in the fly eye (rhabdomeres) using the pseudopupil assay. […] Although the efficacy of 1 may not be solely due to KMO inhibition in the fly, we have previously observed similar levels of neuroprotection with other KMO inhibitors.
Flies were kept on standard maize food at 25 °C with a 12:12 light/dark cycle. HTT93Q exon 1 expressing flies were generated by crossing female virgins carrying the UASHTT93Qexon1 transgene[30] (a gift of Larry Marsh and Leslie Thompson, University of California, Irvine) to males of elavGAL4 [c155] driver line, obtained from the Bloomington Drosophila Stock Center. For the drug feeding experiments, inhibitor 1 was dissolved in dimethylsulfoxide (DMSO) and added to maize media at the experimental concentrations. […] At day 7, rhabdomeres were scored as previously described. […] Rhabdomeres were examined using a Nikon Optiphot-2 light microscope, with ~ 80 ommatidia scored per fly.

[3] = Elimination in urine after intravenous administration; format: in vivo, female C57BL/6 mouse; conditions: mouse, 1 mg free base/kg i.v.
Procedure: Supplementary Table 8. Elimination of inhibitor 1 in urine following single
intravenous administration at 1 mg free base/kg to a female C57BL/6 mouse.
Time Absolute amount of drug Amount of drug in urine

[4] = Plasma protein binding (equilibrium dialysis); format: in vitro ADME; conditions: female, CD1, mouse, read-out: Fraction unbound (blood)
Procedure: for 1 minute and then centrifuged at 3000 rpm in 96-well blocks for 15 minutes (Allegra X12-R, Beckman Coulter, USA). All samples were analysed by means of UPLC/MS/MS on a Xevo TQs micro Mass Spectrometer (Waters Corporation, USA).
The unbound fraction was determined as the ratio of the peak area in artificial CSF to that in brain, with correction for dilution factor according to equation (5)21, […]
((1/f ! ,!""!#$%& ) − 1) + 1/D where D = dilution factor in brain homogenate and fu,apparent is the measured free fraction of diluted brain homogenate.
3.9 Plasma protein binding
In brief, a 96 well equilibrium dialysis apparatus was used to determine the free fraction in plasma for inhibitor 1 (HT Dialysis LLC, Gales Ferry, CT). Membranes (12-14 kDA cut-off) were conditioned in deionised water for 60 minutes, followed by conditioning in 80:20 deionised water:ethanol for 20 minutes, and then rinsed in isotonic buffer before use. Female CD1 mouse plasma was removed from the freezer and allowed to thaw on the day of experiment. […] All samples were analysed by UPLC-MS/MS on a Xevo TQs micro Mass Spectrometer (Waters
Corporation, USA). The unbound fraction was determined as the ratio of the peak area in buffer to that in plasma.

In the case of `CCOC(=O)CN1C(=O)COc2cc(C)c(Cl)c(C)c21` [1b], the “Reduction in [3H]-3-HK” value ([1]; rat striatum, 5 mg/kg i.v., 1 h, vs vehicle) is reported as ~ 70% and the “Percentage of [5-3H]-KYN that is metabolized into [3H]-3-HK” value ([1]; striatum of awake rats, 1 h after 5 mg/kg i.v., single rats, listed as Prodrug 1b) is reported as 0.72% and 0.39% and 1.91% and 0.11% and 1.44% and 0.83% and 2.24% and 1.06% and 1.38% and 0.19%.

In the case of `Cc1cc2c(c(C)c1Cl)N(CC(=O)O)C(=O)CO2` [compound 1, (6-chloro-5,7-dimethyl-3-oxo-2,3-dihydro-4H-1,4-benzoxazin-4-yl) acetic acid], the Neurodegeneration prevented ([2]; HD flies, 100 μM, 7 days) is reported as ~ 57%, the “Reduction in neuron loss (rhabdomeres)” value ([2]; HTT93Q flies, 10 μM or 100 μM for 7 days, vs untreated or DMSO) is reported as “significant dose-dependent reduction” and the “Absolute amount of drug recovered in urine” value ([3]; 0 - 8 h) is reported as 8.67 µg. For the same compound, the “Amount of drug in urine recovered” value ([3]; 0 - 8 h) was 30.3 % Dose, the “Absolute amount of drug recovered in urine” value ([3]; 8 - 24 h) was 0.15 µg and the “Amount of drug in urine recovered” value ([3]; 8 - 24 h) was 0.5 % Dose. The fraction unbound at 5 h, 10 ug/mL [4] was 0.04.
